Measurements taken from patent US20100190747A1, “Fused ring compound and use thereof” (priority 2009, published 2010).

Biological target: T1, delta-5-desaturase (Rattus norvegicus, UniProt Q920R3)
T1 construct: the microsomal fraction of a rat river (10 μl), which had been diluted to 3 mg/ml; from tissue; host or cells: rat liver microsomal fraction
Assay: Inhibitory activity on delta-5-desaturase (rat liver microsomal fraction, 14C-eicosatrienoic acid, TLC)
Format: biochemical
Settings: test compound at 10 μM, room temperature, 120 minutes
Protocol: An inhibitory activity of a test compound on delta-5-desaturase was measured according to the method described herein below. To a DMSO solution of the test compound which had been previously prepared, secondary dilution was carried out by using a buffer (300 mM NaH2PO4 [pH 7.4], 450 mM KCl, 30 mM NaF, 9 mM MgCl2, 4.5 mM glutathione [reduced form], 0.3% BSA [fatty acid free, SIGMA]). This diluent compound (10 μl) was added in a 96-well deep well block made of polypropylene, and then the microsomal fraction of a rat river (10 μl), which had been diluted to 3 mg/ml by using a microsome buffer (10 mM Tris-HCl [pH 7.4], 1 mM EDTA, and 250 mM sucrose), was added thereto. The enzyme reaction was initiated by adding 10 μl of 9 mM NADH, 9 mM ATP, 0.9 mM CoA and 10 μCi/ml (8E,11E,14E)-(1-^14C)eicosa-8,11,14-trienoic acid (PerkinElmer Inc.). The enzyme reaction was carried out at room temperature for 120 minutes, and then terminated by addition of 2.5 M NaOH (10 μl). Upon the completion of the reaction, the plate was covered with plate seal and incubated overnight in a dry heater of which temperature was set at 55° C. for saponification. Based on Bligh & Dyer method which had been described in a known document, Canadian Journal of Biochemistry and Physiology (Can. J. Biochem. Physiol.), Vol. 37, page 911, 1959), the solvent extraction of fatty acid was carried out by adding 200 μl of formic acid:methanol:chloroform (1:6:3), keeping the mixture as a single layer for a while, stirring the mixture to a sufficient level, and adding 120 μl of pure water to separate the mixture into two layers. 10 μl of the bottom chloroform layer was spotted on a reverse phase TLC plate (RP-18, 1154230001, Merck Japan, Ltd.) and then developed with acetonitrile:pure water:acetic acid (95:4.5:0.5). The TLC plate obtained after drying was transferred to an Imaging Plate (Fuji Photo Film Co., Ltd.) for more than 5 hours. Detection was carried out by using BAS-5000 (Fuji Photo Film Co., Ltd.). Numerization of thus-obtained image was carried out by using Multi Gauge Ver 2.3 (Fuji Photo Film Co., Ltd.) and an inhibitory ratio (%) of the test compound at 10 μM on delta-5-desaturase was obtained.

T1 sequence (Q920R3 whole entry): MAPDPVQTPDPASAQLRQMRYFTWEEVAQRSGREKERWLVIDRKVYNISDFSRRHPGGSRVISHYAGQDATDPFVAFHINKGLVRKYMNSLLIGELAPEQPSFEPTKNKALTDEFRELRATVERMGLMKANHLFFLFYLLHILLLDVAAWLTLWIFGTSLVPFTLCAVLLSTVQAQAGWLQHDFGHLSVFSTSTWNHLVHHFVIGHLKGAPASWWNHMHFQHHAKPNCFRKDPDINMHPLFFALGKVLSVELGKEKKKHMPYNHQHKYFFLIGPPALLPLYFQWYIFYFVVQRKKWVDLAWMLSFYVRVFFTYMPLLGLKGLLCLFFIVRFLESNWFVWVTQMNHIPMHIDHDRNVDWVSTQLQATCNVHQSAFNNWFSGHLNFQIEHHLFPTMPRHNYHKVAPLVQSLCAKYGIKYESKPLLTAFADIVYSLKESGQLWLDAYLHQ

Row | inhibition at 10 µM [%] | SMILES
1 | 99 | CC(C)OCCCSc1nc2cc[nH]c2c(=O)n1-c1ccc(OCC(F)(F)F)cc1 [Example 137, 2-{[3-(1-Methylethoxy)propyl]sulfanyl}-3-[4-(2,2,2-trifluoroethoxy)phenyl]-3,5-dihydro-4H-pyrrolo[3,2-d]pyrimidin-4-one]
2 | 99 | CC(C)Oc1nc2c(c(=O)n1-c1ccc(OCC(F)(F)C(F)(F)F)cc1)CC(=O)N2 [Example 310, 2-(1-Methylethoxy)-3-[4-(2,2,3,3,3-pentafluoropropoxy)phenyl]-5,7-dihydro-3H-pyrrolo[2,3-d]pyrimidine-4,6-dione]
3 | 100 | CCCSc1nc2[nH]ccc2c(=O)n1-c1ccc(OCC(F)(F)F)cc1 [Example 224, 2-(Propylsulfanyl)-3-[4-(2,2,2-trifluoroethoxy)phenyl]-3,7-dihydro-4H-pyrrolo[2,3-d]pyrimidin-4-one]
4 | 100 | CCSc1nc2[nH]ccc2c(=O)n1-c1ccc(OCC(F)(F)C(F)(F)F)cc1 [Example 249, 2-(Ethylsulfanyl)-3-[4-(2,2,3,3,3-pentafluoropropoxy)phenyl]-3,7-dihydro-4H-pyrrolo[2,3-d]pyrimidin-4-one]
5 | 97 | CCOCCCSc1nc2cc[nH]c2c(=O)n1-c1ccc(OCC(F)(F)F)cc1 [Example 81, 2-[(3-Ethoxypropyl)sulfanyl]-3-[4-(2,2,2-trifluoroethoxy)phenyl]-3,5-dihydro-4H-pyrrolo[3,2-d]pyrimidin-4-one]
6 | 98 | O=c1c2[nH]ccc2nc(SCCN2CCOCC2)n1-c1ccc(OCC(F)(F)F)cc1 [Example 111, 2-[(2-Morpholin-4-ylethyl)sulfanyl]-3-[4-(2,2,2-trifluoroethoxy)phenyl]-3,5-dihydro-4H-pyrrolo[3,2-d]pyrimidin-4-one]
7 | 101 | O=c1c2[nH]ccc2nc(SCCCO)n1-c1ccc(OCC(F)(F)F)cc1 [Example 116, 2-[(3-Hydroxypropyl)sulfanyl]-3-[4-(2,2,2-trifluoroethoxy)phenyl]-3,5-dihydro-4H-pyrrolo[3,2-d]pyrimidin-4-one]
8 | 101 | CCOc1ccc(-n2c(SCCCC(=O)N(C)CCC#N)nc3cc[nH]c3c2=O)cc1 [Example 66, N-(2-cyanoethyl)-4-{[3-(4-ethoxyphenyl)-4-oxo-4,5-dihydro-3H-pyrrolo[3,2-d]pyrimidin-2-yl]sulfanyl}-N-methylbutanamide]
9 | 100 | O=C(CCCSc1nc2cc[nH]c2c(=O)n1-c1ccc(OCC(F)(F)F)cc1)N1CCCCC1 [Example 77, 2-[(4-Oxo-4-piperidin-1-ylbutyl)sulfanyl]-3-[4-(2,2,2-trifluoroethoxy)phenyl]-3,5-dihydro-4H-pyrrolo[3,2-d]pyrimidin-4-one]
10 | 105 | N#CCCNC(=O)CCCSc1nc2[nH]ccc2c(=O)n1-c1ccc(OCCC(F)(F)F)cc1 [Example 189, N-(2-cyanoethyl)-4-({4-oxo-3-[4-(3,3,3-trifluoropropoxy)phenyl]-4,7-dihydro-3H-pyrrolo[2,3-d]pyrimidin-2-yl}sulfanyl)butanamide]
11 | 99 | O=c1c2cc[nH]c2nc(OCC(F)(F)F)n1-c1ccc(OCC(F)(F)F)cc1 [Example 227, 2-(2,2,2-Trifluoroethoxy)-3-[4-(2,2,2-trifluoroethoxy)phenyl]-3,7-dihydro-4H-pyrrolo[2,3-d]pyrimidin-4-one]
12 | 101 | O=c1c2[nH]ccc2nc(SCCCS(=O)(=O)CC2CC2)n1-c1ccc(OCC2CC2)cc1 [Example 166, 3-[4-(Cyclopropylmethoxy)phenyl]-2-({3-[(cyclopropylmethyl)sulfonyl]propyl}sulfanyl)-3,5-dihydro-4H-pyrrolo[3,2-d]pyrimidin-4-one]
13 | 99 | CCCOc1nc2[nH]ccc2c(=O)n1-c1ccc(OCC(F)(F)F)cc1 [Example 217, 2-Propoxy-3-[4-(2,2,2-trifluoroethoxy)phenyl]-3,7-dihydro-4H-pyrrolo[2,3-d]pyrimidin-4-one]
14 | 97 | CCOc1ccc(-n2c(SCC(=O)NCCC#N)nc3[nH]ccc3c2=O)cc1 [Example 173, N-(2-cyanoethyl)-2-{[3-(4-ethoxyphenyl)-4-oxo-4,7-dihydro-3H-pyrrolo[2,3-d]pyrimidin-2-yl]sulfanyl}acetamide]
15 | 100 | CCCSc1nc2cc[nH]c2c(=O)n1-c1ccc(OCC(F)(F)F)cc1 [Example 105, 2-(Propylsulfanyl)-3-[4-(2,2,2-trifluoroethoxy)phenyl]-3,5-dihydro-4H-pyrrolo[3,2-d]pyrimidin-4-one]
16 | 101 | O=c1c2cc[nH]c2nc(Oc2ccc(F)cc2)n1-c1ccc(OCC(F)(F)F)cc1 [Example 246, 2-(4-Fluorophenoxy)-3-[4-(2,2,2-trifluoroethoxy)phenyl]-3,7-dihydro-4H-pyrrolo[2,3-d]pyrimidin-4-one]
17 | 99 | N#CCCNC(=O)CCCSc1nc2[nH]ccc2c(=O)n1-c1ccc(OCC2CCC2)cc1 [Example 183, N-(2-cyanoethyl)-4-({3-[4-(cyclobutylmethoxy)phenyl]-4-oxo-4,7-dihydro-3H-pyrrolo[2,3-d]pyrimidin-2-yl}sulfanyl)butanamide]
18 | 107 | COCCCSc1nc2cc[nH]c2c(=O)n1-c1ccc(OCC(F)(F)F)cc1 [Example 132, 2-[(3-Methoxypropyl)sulfanyl]-3-[4-(2,2,2-trifluoroethoxy)phenyl]-3,5-dihydro-4H-pyrrolo[3,2-d]pyrimidin-4-one]
19 | 103 | CC(C)(C)COc1ccc(-n2c(SCCCC(=O)NCCC#N)nc3cc[nH]c3c2=O)cc1 [Example 115, N-(2-cyanoethyl)-4-({3-[4-(2,2-dimethylpropoxy)phenyl]-4-oxo-4,5-dihydro-3H-pyrrolo[3,2-d]pyrimidin-2-yl}sulfanyl)butanamide]
20 | 99 | CCSc1nc2c(c(=O)n1-c1ccc(OCC(F)F)cc1)CC(=O)N2 [Example 270, 3-[4-(2,2-Difluoroethoxy)phenyl]-2-(ethylsulfanyl)-5,7-dihydro-3H-pyrrolo[2,3-d]pyrimidine-4,6-dione]
21 | 99 | O=C(CCCSc1nc2cc[nH]c2c(=O)n1-c1ccc(OCC(F)(F)F)cc1)NCC(F)(F)F [Example 75, 4-({4-Oxo-3-[4-(2,2,2-trifluoroethoxy)phenyl]-4,5-dihydro-3H-pyrrolo[3,2-d]pyrimidin-2-yl}sulfanyl)-N-(2,2,2-trifluoroethyl)butanamide]
22 | 99 | N#CCCCCSc1nc2cc[nH]c2c(=O)n1-c1ccc(OCC(F)(F)F)cc1 [Example 87, 5-({4-Oxo-3-[4-(2,2,2-trifluoroethoxy)phenyl]-4,5-dihydro-3H-pyrrolo[3,2-d]pyrimidin-2-yl}sulfanyl)pentanenitrile]
23 | 94 | CCOCCCSc1nc2c(c(=O)n1-c1ccc(OCC(F)(F)F)cc1)CC(=O)N2 [Example 302, 2-[(3-Ethoxypropyl)sulfanyl]-3-[4-(2,2,2-trifluoroethoxy)phenyl]-5,7-dihydro-3H-pyrrolo[2,3-d]pyrimidine-4,6-dione]
24 | 102 | O=c1c2cc[nH]c2nc(OCC2CC2)n1-c1ccc(OCC(F)(F)F)cc1 [Example 226, 2-(Cyclopropylmethoxy)-3-[4-(2,2,2-trifluoroethoxy)phenyl]-3,7-dihydro-4H-pyrrolo[2,3-d]pyrimidin-4-one]
25 | 100 | O=C(CCCSc1nc2cc[nH]c2c(=O)n1-c1ccc(OCC(F)(F)F)cc1)N1CCS(=O)(=O)CC1 [Example 135, 2-{[4-(1,1-Dioxidothiomorpholin-4-yl)-4-oxobutyl]sulfanyl}-[4-(2,2,2-trifluoroethoxy)phenyl]-3,5-dihydro-4H-pyrrolo[3,2-d]pyrimidin-4-one]

Row | SMILES | inhibition at 10 µM [%]
26 | N#CCCNC(=O)CCCSc1nc2[nH]ccc2c(=O)n1-c1ccc(OCCCC(F)(F)F)cc1 [Example 186, N-(2-cyanoethyl)-4-({4-oxo-3-[4-(4,4,4-trifluorobutoxy)phenyl]-4,7-dihydro-3H-pyrrolo[2,3-d]pyrimidin-2-yl}sulfanyl)butanamide] | 100
27 | CCCCOc1nc2[nH]ccc2c(=O)n1-c1ccc(OCC(F)(F)F)cc1 [Example 222, 2-Butoxy-3-[4-(2,2,2-trifluoroethoxy)phenyl]-3,7-dihydro-4H-pyrrolo[2,3-d]pyrimidin-4-one] | 101
28 | CCCCOc1ccc(-n2c(SCCCC(=O)NCCC#N)nc3cc[nH]c3c2=O)cc1 [Example 91, 4-{[3-(4-Butoxyphenyl)-4-oxo-4,5-dihydro-3H-pyrrolo[3,2-d]pyrimidin-2-yl]sulfanyl}-N-(2-cyanoethyl)butanamide] | 100
